The text below walks through data of patent US6867293B2, “Polynucleotide constructs having at least one transcriptional enhancer and encoding a modified rice EPSPS enzyme” (Syngenta Limited, priority 2000, dated 2005).

One assay relates to resistant form of EPSPS. The assay is described as follows: EPSPS assay of plant extracts +/- 0.1 mM glyphosate, resistant form. Conditions: 0.1 mM N-(phosphonomethyl)glycine, 0.1 mM 14C-PEP, 0.75 mM shikimate-3-Pi, estimated. It counts as biochemical, rice. As to the method:
(§1) Assays are carried out generally according to the radiochemical method of Padgette et al 1987 (Archives of Biochemistry and Biophysics, 258(2) 564-573) with K+ ions as the major species of cationic counterion. Assays in a total volume of 50 μl, in 50 mM Hepes(KOH) pH 7.0 at 25° C., contain purified enzyme or plant extract (see below) diluted appropriately in Hepes pH 7.0 containing 10% glycerol, and 5 mM DTT, ^14C PEP either as variable substrate (for kinetic determinations) or fixed at 100 or 250 μM and shikimate 3 Phosphate (K+ salt) at 2 or 0.75 mM as indicated. Optionally, for assays of crude plant extracts, assays also contain 5 mM KF and/or 0.1 mM ammonium molybdate. Assays are started with the addition of ^14C phosphoenolpyruvate (cyclohexylammonium+salt) and stopped after 2-10 minutes (2 minutes is preferable) with the addition of 50 μl of a solution of 1 part 1M acetic acid and 9 parts ethanol. […] Apparent Km and Vmax values are determined by least squares fit to a hyperbola with simple weighting using the Grafit 3.09b from Erithacus Software Ltd. Km values are generally ascertained using 8-9 concentrations of variable substrate ranging from Km/2-10 Km and triplicate points. […]

Assay [1] has as its system sensitive w/t form of EPSPS (endogenous). The assay is described as follows: EPSPS assay of plant extracts +/- 0.1 mM glyphosate, sensitive w/t form. Format: biochemical, corn. Conditions: 0.1 mM N-(phosphonomethyl)glycine, 0.1 mM 14C-PEP, 0.75 mM shikimate-3-Pi. As to the method:
as §1

In assay [2] the target is T1, mutant form of rice EPSPS (Oryza sativa, UniProt A0A0N9WU17, P177S/T173I).
T1 sequence (A0A0N9WU17 72-515 T173I/P177S): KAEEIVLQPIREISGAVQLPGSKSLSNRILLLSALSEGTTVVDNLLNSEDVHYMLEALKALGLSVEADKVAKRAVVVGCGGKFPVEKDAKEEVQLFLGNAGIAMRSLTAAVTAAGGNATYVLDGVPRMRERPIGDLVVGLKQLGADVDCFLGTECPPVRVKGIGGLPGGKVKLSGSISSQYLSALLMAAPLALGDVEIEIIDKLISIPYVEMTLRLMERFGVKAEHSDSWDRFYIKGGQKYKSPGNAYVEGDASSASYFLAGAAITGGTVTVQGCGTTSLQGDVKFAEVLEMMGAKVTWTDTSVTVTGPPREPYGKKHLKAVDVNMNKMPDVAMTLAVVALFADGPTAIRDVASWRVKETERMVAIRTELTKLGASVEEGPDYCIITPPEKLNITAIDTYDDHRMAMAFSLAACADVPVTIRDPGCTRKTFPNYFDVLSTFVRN
Briefly: EPSPS enzyme assay and kinetic constants, purified mutant rice EPSPS expressed in E. coli. It counts as biochemical. As to the method:
as §1

Where a name gives a salt, the structure may show the parent alone.

`O=C(O)CNCP(=O)(O)O` [glyphosate, N-phosphonomethylglycine]: the figures for the “inhibition of resistant (tolerant) EPSPS” value in the assay with resistant form of EPSPS and with resistant form of EPSPS (listed as N-(phosphonomethyl)glycine) were around 8% and below 8.5%, respectively. Further, the “inhibition of sensitive w/t EPSPS” value in assay [1] is above 98%.
In assay [2], `O=C(O)CNCP(=O)(O)O` [potassium salt of glyphosate] displayed an IC50 of around 600 µM and a Ki of around 200 µM.
